# Measurements published in paper PMC9706020, “Isovitexin Is a Direct Inhibitor of Staphylococcus aureus Coagulase” (Journal of Microbiology and Biotechnology, 2021).
# How the values were obtained:
# [1] = biological target: T1, S. aureus coagulase (Coa); 6×His-Coa; WT-Coa (Staphylococcus aureus, UniProt Q2G1D3); test: plate coagulation assay (agarose, fibrinogen, rabbit plasma); type: biochemical; details: 2.5 mg/ml Coa; 37 °C overnight; rabbit plasma as prothrombin source
# T1 construct: gene SAOUHSC_00192; 6×His-tagged Coa from pET15b-Coa, expressed in E. coli BL21(DE3), Ni-NTA purified
# [2] = biological target: T1, S. aureus coagulase (Coa); 6×His-Coa; WT-Coa; test: intrinsic fluorescence quenching; type: binding
# [3] = biological target: T2, S. aureus coagulase (Coa); 6×His-Coa; WT-Coa (Staphylococcus aureus, UniProt Q2G1D3, N267A); test: biochemical
# T2 construct: gene SAOUHSC_00192
# Description: (§1) intrinsic fluorescence quenching on S. aureus coagulase (Coa); 6×His-Coa; WT-Coa
# [4] = biological target: T3, S. aureus coagulase (Coa); 6×His-Coa; WT-Coa (Staphylococcus aureus, UniProt Q2G1D3, P268A); test: biochemical
# T3 construct: gene SAOUHSC_00192
# Description: as §1
# [5] = biological target: T4, S. aureus coagulase (Coa); 6×His-Coa; WT-Coa (Staphylococcus aureus, UniProt Q2G1D3, V191A); test: biochemical
# T4 construct: gene SAOUHSC_00192
# Description: as §1
# [6] = biological target: T5, S. aureus coagulase (Coa); 6×His-Coa; WT-Coa (Staphylococcus aureus, UniProt Q2G1D3, Y188A); test: biochemical
# T5 construct: gene SAOUHSC_00192
# Description: as §1
smiles,measurement,setting,value
"O=c1cc(-c2ccc(O)cc2)oc2cc(O)c([C@@H]3O[C@H](CO)[C@@H](O)[C@H](O)[C@H]3O)c(O)c12 [isovitexin, apigenin-6-C-β-glucopyranoside]","diameter of coagulation zone, % of control, at 128 μg/ml",[1],47.50%
same,Kd,[2],10 µM
same,Kd,[3],12.4 µM
same,Kd,[4],19.4 µM
same,Kd,[5],23 µM
same,Kd,[6],11.4 µM
